Results as given in PMC10123570 (The Protein Journal, 2023).
Structures can show the parent of a compound that is named as a salt.

Target: T1, High Temperature requirement A (LmHtrA) (Listeria monocytogenes, UniProt Q8YA67)
T1 sequence (Q8YA67 1-500): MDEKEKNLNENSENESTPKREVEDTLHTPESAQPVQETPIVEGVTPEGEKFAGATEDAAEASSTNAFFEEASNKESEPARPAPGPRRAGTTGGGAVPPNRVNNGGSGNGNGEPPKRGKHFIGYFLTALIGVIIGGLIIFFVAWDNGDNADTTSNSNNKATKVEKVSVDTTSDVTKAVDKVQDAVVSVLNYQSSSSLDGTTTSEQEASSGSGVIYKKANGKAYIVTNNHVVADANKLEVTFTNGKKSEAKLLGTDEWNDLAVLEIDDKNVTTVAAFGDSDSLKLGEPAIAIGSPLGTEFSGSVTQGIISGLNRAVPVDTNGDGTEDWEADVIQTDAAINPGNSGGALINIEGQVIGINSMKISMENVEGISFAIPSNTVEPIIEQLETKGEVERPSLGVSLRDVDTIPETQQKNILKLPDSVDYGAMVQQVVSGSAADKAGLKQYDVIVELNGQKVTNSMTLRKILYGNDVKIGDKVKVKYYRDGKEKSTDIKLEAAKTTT
Experiment: azo-casein cleavage, spectrophotometric
Type: biochemical

Compound	IC50 [µM]
CN(C)C(=O)COC(=O)Cc1ccc(OC(=O)c2ccc(NC(=N)N)cc2)cc1 [CM, Camostat mesylate]	152 ± 7.5
CCOC(=O)c1ccc(OC(=O)CCCCCNC(=N)N)cc1 [GM, Gabexate mesylate]	80.6 ± 8.5
N=C(N)c1ccc2cc(OC(=O)c3ccc(N=C(N)N)cc3)ccc2c1 [NM, Nafamostat mesylate]	6.6 ± 0.4
